{"source": "patent US10738028B2", "about": "“Spiro three-membered ring, spiro five-membered ring peptide deformylase inhibitor and use thereof in antibacteria and anti-tumor” (priority 2016, dated 2020)", "type_in_all_cases": "cell-based", "key": {"[1]": {"tested_on": "Moraxella catarrhalis (BCA)", "test": "MIC, two-fold agar dilution (CLSI), clinical isolates", "outline": "(§1)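 Samples are serially diluted two-fold in agar following CLSI guidance. Plates are then inoculated with the tested strains. The lowest inhibiting concentration is recorded as MIC.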"}, "[2]": {"tested_on": "methicillin-resistant Staphylococcus epidermidis (MRSE)", "test": "MIC, two-fold agar dilution (CLSI), clinical isolates", "outline": "as §1"}, "[3]": {"tested_on": "methicillin-resistant Staphylococcus aureus (MRSA)", "test": "MIC, two-fold agar dilution (CLSI), clinical isolates", "outline": "as §1"}, "[4]": {"tested_on": "Escherichia coli (including ESBLs, non-ESBLs)", "test": "MIC, two-fold agar dilution (CLSI), clinical isolates", "outline": "as §1"}, "[5]": {"tested_on": "Enterococcus faecium (EFM)", "test": "MIC, two-fold agar dilution (CLSI), clinical isolates", "outline": "as §1"}, "[6]": {"tested_on": "Enterococcus faecalis (EFA)", "test": "MIC, two-fold agar dilution (CLSI), clinical isolates", "outline": "as §1"}, "[7]": {"tested_on": "methicillin-sensitive Staphylococcus aureus (MSSA)", "test": "MIC, two-fold agar dilution (CLSI), clinical isolates", "outline": "as §1"}, "[8]": {"tested_on": "methicillin-sensitive Staphylococcus epidermidis (MSSE)", "test": "MIC, two-fold agar dilution (CLSI), clinical isolates", "outline": "as §1"}, "[9]": {"tested_on": "BEL-7402 liver cancer cell line", "test": "CCK-8 proliferation inhibition", "details": "concentration of 30 μM", "description": "(§2) 2. The present invention adopts the CCK-8 method to determine the proliferation inhibition effect of the spiro three-membered ring, spiro five-membered ring peptide deformylase inhibitor as described in Examples 1-80 against colorectal cancer cells, lung cancer cells, gastric cancer cells, liver cancer cells, and the like. […] The compound having the best activity synthesized in Example 64 was further tested for its inhibitory activity against other tumor cells including T cell leukemia, acute myeloid leukemia, cervical cancer, breast cancer, prostate cancer and osteosarcoma, and the like (see Table 7).\n(§3) (1) HCT-116 colorectal cancer cell line, A549 lung cancer cell line, MGC-803 gastric cancer cell line, BEL-7402 liver cancer cell line, Jurkat T cell leukemia cell line, HL60 acute myeloid leukemia cell line, Hela cervical cancer cell line, MCF-7 breast cancer cell line, PC3 prostate cancer cell line and SAOS-2 osteosarcoma cell line were made into single cell suspension, 180 μL of which was inoculated into 96-well culture plate, which was cultured overnight in CO2 incubator (37° C., 5% CO2, 95% air).\n(§4) (2) Each of the spiro three-membered ring, spiro five membered ring peptide deformylase inhibitors was dissolved in DMSO, and was further formulated into drug solution with required different final concentration using corresponding cell culture medium. The drug solutions were added to the above cells respectively (20 μL/well), with the control group added with 1‰ DMSO, and cultured in a CO2 incubator for 72 hours.\n(§5) (3) After incubation for 72 hours, the culture solution was decanted, and 100 μL of 1:10 diluted CCK-8 solution was added.\n(§6) Wherein, in step (1), the concentration of the single cell suspension was 2000 cells/well.\n(§7) Wherein, in step (2), HCT-116 cells were cultured in McCoy's 5A medium (containing 10% newborn bovine serum, 1% double antibody); A549 and PC3 cells were cultured in F12 medium (containing 10% newborn bovine serum, 1% double antibody); MGC-803, BEL-7402, SAOS-2, Jurkat and HL60 cells were cultured in 1640 medium (containing 10% newborn bovine serum, 1% double antibody); and MCF-7 and Hela cells were cultured in DMEM high glucose medium (containing 10% newborn bovine serum, 1% double antibody)."}, "[10]": {"tested_on": "A549 lung cancer cell line", "test": "CCK-8 proliferation inhibition", "details": "Homo sapiens, A549, 72 h, concentration of 30 μM", "description": "as §2, §3, §4, §5, §6, §7"}, "[11]": {"tested_on": "MGC-803 gastric cancer cell line", "test": "CCK-8 proliferation inhibition", "details": "Homo sapiens, MGC-803, 72 h, concentration of 30 μM", "description": "as §2, §3, §4, §5, §6, §7"}, "[12]": {"tested_on": "HCT-116 colorectal cancer cell line", "test": "CCK-8 proliferation inhibition", "details": "Homo sapiens, HCT-116, 72 h, concentration of 30 μM, 72 hours, CCK-8", "outline": "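Cells were plated overnight at 2000 cells/well, then compound in culture medium was added at a range of final concentrations. After 72 hours in a CO2 incubator, medium was replaced with 1:10 CCK-8 solution for the read-out.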"}}, "note": "Where two headings read alike, the source gives them in different places.", "data": [{"molecule": "CCCC[C@H](CC(=O)NO)C(=O)N1CC2(CCCC2)C[C@H]1C(=O)Nc1cnccn1", "note": "[Example 77]", "values": [{"measurement": "Anti-bacterial activity (MIC)", "setting": "[1]; strain BCA 14-1", "value": 1, "unit": "µg/mL"}, {"measurement": "Anti-bacterial activity (MIC)", "setting": "[1]; strain BCA 14-4", "value": 2, "unit": "µg/mL"}, {"measurement": "Anti-bacterial activity (MIC)", "setting": "[1]; strain BCA 14-5", "value": 0.125, "unit": "µg/mL"}, {"measurement": "Anti-bacterial activity (MIC)", "setting": "[1]; strain BCA 14-6", "value": 0.5, "unit": "µg/mL"}, {"measurement": "Anti-bacterial activity (MIC)", "setting": "[1]; strain BCA 14-7", "value": 0.5, "unit": "µg/mL"}, {"measurement": "Anti-bacterial activity (MIC)", "setting": "[1]; strain BCA 14-8", "value": 0.5, "unit": "µg/mL"}, {"measurement": "Anti-bacterial activity (MIC)", "setting": "[1]; strain BCA 14-10", "value": 0.25, "unit": "µg/mL"}, {"measurement": "Anti-bacterial activity (MIC), strain MRSE 15-1", "setting": "[2]; clinical isolate MRSE 15-1", "value": 0.5, "unit": "µg/mL"}, {"measurement": "Anti-bacterial activity (MIC), strain MRSE 15-2", "setting": "[2]; clinical isolate MRSE 15-2", "value": 2, "unit": "µg/mL"}, {"measurement": "Anti-bacterial activity (MIC), strain MRSE 15-3", "setting": "[2]; clinical isolate MRSE 15-3", "value": 2, "unit": "µg/mL"}, {"measurement": "Anti-bacterial activity (MIC), strain MRSE 15-7", "setting": "[2]; clinical isolate MRSE 15-7", "value": 2, "unit": "µg/mL"}, {"measurement": "Anti-bacterial activity (MIC), strain MRSA 15-1", "setting": "[3]; clinical isolate MRSA 15-1", "value": 0.25, "unit": "µg/mL"}, {"measurement": "Anti-bacterial activity (MIC), strain MRSA 15-2", "setting": "[3]; clinical isolate MRSA 15-2", "value": 0.5, "unit": "µg/mL"}, {"measurement": "Anti-bacterial activity (MIC), strain MRSA 15-3", "setting": "[3]; clinical isolate MRSA 15-3", "value": 0.25, "unit": "µg/mL"}, {"measurement": "Anti-bacterial activity (MIC), strain MRSA 15-4", "setting": "[3]; clinical isolate MRSA 15-4", "value": 0.5, "unit": "µg/mL"}, {"measurement": "Anti-bacterial activity (MIC), strain ECO+ 15-1", "setting": "[4]; clinical isolate ECO+ 15-1", "value": 0.125, "unit": "µg/mL"}, {"measurement": "Anti-bacterial activity (MIC), strain ECO+ 15-2", "setting": "[4]; clinical isolate ECO+ 15-2", "value": "> 32", "unit": "µg/mL"}, {"measurement": "Anti-bacterial activity (MIC), strain ECO+ 15-3", "setting": "[4]; clinical isolate ECO+ 15-3", "value": "> 32", "unit": "µg/mL"}, {"measurement": "Anti-bacterial activity (MIC), strain ECO+ 15-4", "setting": "[4]; clinical isolate ECO+ 15-4", "value": "> 32", "unit": "µg/mL"}, {"measurement": "Anti-bacterial activity (MIC), strain ECO− 15-1", "setting": "[4]; clinical isolate ECO− 15-1", "value": "> 32", "unit": "µg/mL"}, {"measurement": "Anti-bacterial activity (MIC), strain ECO− 15-2", "setting": "[4]; clinical isolate ECO− 15-2", "value": "> 32", "unit": "µg/mL"}, {"measurement": "Anti-bacterial activity (MIC), strain ECO− 15-3", "setting": "[4]; clinical isolate ECO− 15-3", "value": "> 32", "unit": "µg/mL"}, {"measurement": "Anti-bacterial activity (MIC), strain ECO− 15-4", "setting": "[4]; clinical isolate ECO− 15-4", "value": "> 32", "unit": "µg/mL"}, {"measurement": "Anti-bacterial activity (MIC)", "setting": "[5]; strain EFM 15-1", "value": 32, "unit": "µg/mL"}, {"measurement": "Anti-bacterial activity (MIC)", "setting": "[5]; strain EFM 15-2", "value": 32, "unit": "µg/mL"}, {"measurement": "Anti-bacterial activity (MIC)", "setting": "[5]; strain EFM 15-3", "value": 32, "unit": "µg/mL"}, {"measurement": "Anti-bacterial activity (MIC)", "setting": "[5]; strain EFM 15-4", "value": 2, "unit": "µg/mL"}, {"measurement": "Anti-bacterial activity (MIC)", "setting": "[5]; strain EFM 15-5", "value": 2, "unit": "µg/mL"}, {"measurement": "Anti-bacterial activity (MIC)", "setting": "[5]; strain EFM 15-6", "value": 2, "unit": "µg/mL"}, {"measurement": "Anti-bacterial activity (MIC)", "setting": "[6]; strain EFA 15-1", "value": 32, "unit": "µg/mL"}, {"measurement": "Anti-bacterial activity (MIC)", "setting": "[6]; strain EFA 15-2", "value": 32, "unit": "µg/mL"}, {"measurement": "Anti-bacterial activity (MIC)", "setting": "[6]; strain EFA 15-3", "value": 32, "unit": "µg/mL"}, {"measurement": "Anti-bacterial activity (MIC)", "setting": "[6]; strain EFA 15-4", "value": 32, "unit": "µg/mL"}, {"measurement": "Anti-bacterial activity (MIC)", "setting": "[6]; strain EFA 15-5", "value": 32, "unit": "µg/mL"}, {"measurement": "Anti-bacterial activity (MIC)", "setting": "[6]; strain EFA 15-6", "value": 32, "unit": "µg/mL"}, {"measurement": "Anti-bacterial activity (MIC)", "setting": "[6]; strain EFA 15-9", "value": 16, "unit": "µg/mL"}, {"measurement": "Anti-bacterial activity (MIC), strain MSSA 15-3", "setting": "[7]; clinical isolate MSSA 15-3", "value": 0.5, "unit": "µg/mL"}, {"measurement": "Anti-bacterial activity (MIC), strain MSSA 15-4", "setting": "[7]; clinical isolate MSSA 15-4", "value": 0.125, "unit": "µg/mL"}, {"measurement": "Anti-bacterial activity (MIC), strain MSSA 15-5", "setting": "[7]; clinical isolate MSSA 15-5", "value": 0.125, "unit": "µg/mL"}, {"measurement": "Anti-bacterial activity (MIC), strain MSSA 15-6", "setting": "[7]; clinical isolate MSSA 15-6", "value": "> 32", "unit": "µg/mL"}, {"measurement": "Anti-bacterial activity (MIC), strain MSSE 15-3", "setting": "[8]; clinical isolate MSSE 15-3", "value": 0.5, "unit": "µg/mL"}, {"measurement": "Anti-bacterial activity (MIC), strain MSSE 15-4", "setting": "[8]; clinical isolate MSSE 15-4", "value": 2, "unit": "µg/mL"}, {"measurement": "Anti-bacterial activity (MIC), strain MSSE 15-5", "setting": "[8]; clinical isolate MSSE 15-5", "value": 2, "unit": "µg/mL"}, {"measurement": "Anti-bacterial activity (MIC), strain MSSE 15-6", "setting": "[8]; clinical isolate MSSE 15-6", "value": 0.125, "unit": "µg/mL"}, {"measurement": "inhibition at 30 µM", "setting": "[9]; Homo sapiens, Bel-7402, 72 h", "value": "> 50", "unit": "%"}, {"measurement": "Inhibition of proliferation, Liver cancer BEL-7402", "setting": "[9]; 72 hours, 30 µM", "value": 49, "unit": "%"}, {"measurement": "inhibition at 30 µM", "setting": "[10]", "value": 16, "unit": "%"}, {"measurement": "inhibition at 30 µM", "setting": "[11]", "value": 19, "unit": "%"}, {"measurement": "inhibition at 30 µM", "setting": "[12]; Table 5, read-out: Inhibition of proliferation, Colorectal cancer HCT116", "value": "≥ 30", "unit": "%"}, {"measurement": "inhibition at 30 µM", "setting": "[12]; read-out: HCT116 inhibition rate/%", "value": 30, "unit": "%"}]}]}
